Test results as given in ChEMBL document CHEMBL1201862, “PubChem BioAssay data set” (2004).
Where a name gives a salt, the structure may show the parent alone. Calls of active or inactive are those of the source.

Assays:
[1] = system: Vero; test: cells; assay type: functional; details: Chlorocebus sabaeus
[2] = system: Vero; test: cells; assay type: functional, cell-based; details: Chlorocebus sabaeus
[3] = system: HeLa; test: ATP-based viability loss in HeLa cells – cell-based, CellTiter-Glo luminescence, cherry-pick samples, cytotoxicity control for MITF activator project, dose response (AID 540259); assay type: functional; details: Homo sapiens
[4] = molecular target: Voltage-gated inwardly rectifying potassium channel KCNH2 (Homo sapiens, UniProt Q12809); details: Potency;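 also: confirmatory quantitative high-throughput screen measuring inhibition of hERG channel activity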
Voltage-gated inwardly rectifying potassium channel KCNH2, sequence (Q12809 whole entry): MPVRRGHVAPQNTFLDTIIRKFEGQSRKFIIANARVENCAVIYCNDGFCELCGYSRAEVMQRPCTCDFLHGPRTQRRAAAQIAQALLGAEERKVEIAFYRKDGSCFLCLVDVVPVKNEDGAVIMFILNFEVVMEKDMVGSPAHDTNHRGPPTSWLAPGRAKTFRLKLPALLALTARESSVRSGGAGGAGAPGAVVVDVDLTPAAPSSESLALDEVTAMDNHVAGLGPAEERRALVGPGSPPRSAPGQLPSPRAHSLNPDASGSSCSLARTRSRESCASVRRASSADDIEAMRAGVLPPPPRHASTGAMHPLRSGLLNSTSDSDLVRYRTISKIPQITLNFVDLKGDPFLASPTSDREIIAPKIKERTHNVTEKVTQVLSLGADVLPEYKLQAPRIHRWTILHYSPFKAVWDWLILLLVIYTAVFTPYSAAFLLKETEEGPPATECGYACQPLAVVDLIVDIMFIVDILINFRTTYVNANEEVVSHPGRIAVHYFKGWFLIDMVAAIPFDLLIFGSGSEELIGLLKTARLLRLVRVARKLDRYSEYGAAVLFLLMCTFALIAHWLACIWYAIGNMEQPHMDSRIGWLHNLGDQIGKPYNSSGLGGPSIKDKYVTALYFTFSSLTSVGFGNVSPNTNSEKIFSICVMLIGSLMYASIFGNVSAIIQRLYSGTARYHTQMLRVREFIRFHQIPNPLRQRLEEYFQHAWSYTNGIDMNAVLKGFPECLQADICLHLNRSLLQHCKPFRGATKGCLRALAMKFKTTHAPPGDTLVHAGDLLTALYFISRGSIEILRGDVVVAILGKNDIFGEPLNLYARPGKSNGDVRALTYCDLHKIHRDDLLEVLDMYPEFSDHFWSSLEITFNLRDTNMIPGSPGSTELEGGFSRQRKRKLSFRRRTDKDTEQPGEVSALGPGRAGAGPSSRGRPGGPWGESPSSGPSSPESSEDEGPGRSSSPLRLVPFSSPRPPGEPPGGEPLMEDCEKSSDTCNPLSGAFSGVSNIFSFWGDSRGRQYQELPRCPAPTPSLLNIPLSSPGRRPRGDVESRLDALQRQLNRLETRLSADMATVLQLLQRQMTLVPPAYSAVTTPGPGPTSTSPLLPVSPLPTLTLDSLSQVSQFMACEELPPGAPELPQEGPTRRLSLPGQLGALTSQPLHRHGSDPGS

[5] = molecular target: T1, Probable nicotinate-nucleotide adenylyltransferase (Staphylococcus aureus (strain N315), UniProt P65502); assay type: functional, Staphylococcus aureus subsp. aureus N315;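 as to IC50 Mean: confirmatory dose-response retesting of NadD inhibitor hits first found in an ultra-high-throughput screen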
T1 sequence (P65502 whole entry): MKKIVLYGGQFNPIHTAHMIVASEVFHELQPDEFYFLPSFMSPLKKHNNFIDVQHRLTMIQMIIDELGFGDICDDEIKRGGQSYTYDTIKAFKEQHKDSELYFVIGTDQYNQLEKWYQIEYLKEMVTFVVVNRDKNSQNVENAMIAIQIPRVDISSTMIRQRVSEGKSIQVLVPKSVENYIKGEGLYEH

[6] = molecular target: T1, Probable nicotinate-nucleotide adenylyltransferase; assay type: functional, Staphylococcus aureus subsp. aureus N315; details: read-out: IC50_Mean
[7] = molecular target: DNA (cytosine-5)-methyltransferase 1 (Homo sapiens, UniProt P26358); test: inhibition of DNA methylation by DNMT1 – biochemical, fluorescent molecular beacon, confirmation (AID 602386); assay type: functional
DNA (cytosine-5)-methyltransferase 1, sequence (P26358 whole entry): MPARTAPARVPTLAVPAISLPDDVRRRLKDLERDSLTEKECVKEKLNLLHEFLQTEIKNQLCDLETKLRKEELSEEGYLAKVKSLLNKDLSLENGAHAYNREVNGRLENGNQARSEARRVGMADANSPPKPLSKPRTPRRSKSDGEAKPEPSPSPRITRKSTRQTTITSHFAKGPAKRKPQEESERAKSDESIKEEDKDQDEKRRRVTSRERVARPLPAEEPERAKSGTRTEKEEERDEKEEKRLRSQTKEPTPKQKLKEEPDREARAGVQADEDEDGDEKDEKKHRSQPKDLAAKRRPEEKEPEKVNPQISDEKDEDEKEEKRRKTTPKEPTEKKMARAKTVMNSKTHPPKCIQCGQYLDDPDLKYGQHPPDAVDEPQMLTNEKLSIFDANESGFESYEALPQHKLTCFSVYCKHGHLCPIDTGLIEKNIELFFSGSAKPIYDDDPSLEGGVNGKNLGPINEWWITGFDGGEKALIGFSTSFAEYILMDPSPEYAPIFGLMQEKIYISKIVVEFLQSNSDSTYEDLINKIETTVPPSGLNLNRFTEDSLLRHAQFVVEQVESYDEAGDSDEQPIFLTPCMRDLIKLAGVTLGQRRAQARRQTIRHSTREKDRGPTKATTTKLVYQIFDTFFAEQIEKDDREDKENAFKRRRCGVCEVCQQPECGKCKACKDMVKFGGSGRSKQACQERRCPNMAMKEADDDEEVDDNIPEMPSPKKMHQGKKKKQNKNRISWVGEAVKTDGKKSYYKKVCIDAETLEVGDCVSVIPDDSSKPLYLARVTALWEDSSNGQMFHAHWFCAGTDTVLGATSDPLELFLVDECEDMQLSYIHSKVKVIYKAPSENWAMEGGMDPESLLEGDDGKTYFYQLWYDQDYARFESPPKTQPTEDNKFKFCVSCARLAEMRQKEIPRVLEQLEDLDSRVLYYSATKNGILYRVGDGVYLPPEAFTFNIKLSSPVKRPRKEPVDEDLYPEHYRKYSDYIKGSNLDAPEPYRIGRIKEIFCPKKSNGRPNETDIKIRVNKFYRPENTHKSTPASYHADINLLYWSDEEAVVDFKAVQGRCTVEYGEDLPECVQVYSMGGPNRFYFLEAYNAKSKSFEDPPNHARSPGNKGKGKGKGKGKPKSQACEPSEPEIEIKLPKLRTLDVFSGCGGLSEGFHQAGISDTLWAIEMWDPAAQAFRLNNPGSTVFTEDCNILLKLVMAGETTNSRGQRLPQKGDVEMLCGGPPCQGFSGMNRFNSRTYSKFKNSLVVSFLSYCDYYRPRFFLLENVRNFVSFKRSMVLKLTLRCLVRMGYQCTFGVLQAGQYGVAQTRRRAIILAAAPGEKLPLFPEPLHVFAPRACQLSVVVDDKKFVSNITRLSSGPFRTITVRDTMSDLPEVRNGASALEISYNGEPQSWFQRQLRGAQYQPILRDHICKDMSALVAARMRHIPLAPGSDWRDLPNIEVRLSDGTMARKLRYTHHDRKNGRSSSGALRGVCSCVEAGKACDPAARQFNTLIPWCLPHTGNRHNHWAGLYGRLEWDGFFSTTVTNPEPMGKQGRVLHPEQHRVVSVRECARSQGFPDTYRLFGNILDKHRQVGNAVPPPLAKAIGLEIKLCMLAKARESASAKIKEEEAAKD

[8] = blockers of bursicon-stimulated LGR2 cAMP reporter – cell-based, HEK293, CRE-luciferase reporter, cherry pick, set 2, dose response (AID 743343); assay type: functional;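 also: transfected cells were stimulated with diluted bursicon conditioned medium after compound addition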
[9] = viability loss in HEK293 cells – cell-based, plate reader, cherry-picked samples, cytotoxicity control, dose response (AID 743446); assay type: functional
[10] = blockade of melanocortin 4 receptor signaling – cell-based, plate reader, cherry pick, counter-screen for LGR2 antagonist project, dose response (AID 743444); assay type: functional;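 also: transfected HEK 293 cells stimulated with alpha-MSH peptide; potency of inhibitors of the alpha-MSH evoked signal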
[11] = system: HEK293; test: cells; details: Homo sapiens
[12] = Trypanosoma cruzi growth suppression in host cells – NIH3T3 host cells, beta-gal luminescence, confirmation (AID 2044); assay type: functional, cell-based;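 also: intracellular parasites grown in NIH/3T3 mouse fibroblasts as host cells; luminescent beta-galactosidase reporter signal from transgenic T. cruzi replicating inside host cells; inhibitors lower the luminescence signal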
[13] = molecular target: Beta-2 adrenergic receptor (Homo sapiens, UniProt P07550); test: ADRB2 activation measured by internalization – cell-based, FAP fluorogen, flow cytometry, cherry pick 1, dose response (AID 588763); assay type: functional
Beta-2 adrenergic receptor, sequence (P07550 whole entry, the tested form may be a part): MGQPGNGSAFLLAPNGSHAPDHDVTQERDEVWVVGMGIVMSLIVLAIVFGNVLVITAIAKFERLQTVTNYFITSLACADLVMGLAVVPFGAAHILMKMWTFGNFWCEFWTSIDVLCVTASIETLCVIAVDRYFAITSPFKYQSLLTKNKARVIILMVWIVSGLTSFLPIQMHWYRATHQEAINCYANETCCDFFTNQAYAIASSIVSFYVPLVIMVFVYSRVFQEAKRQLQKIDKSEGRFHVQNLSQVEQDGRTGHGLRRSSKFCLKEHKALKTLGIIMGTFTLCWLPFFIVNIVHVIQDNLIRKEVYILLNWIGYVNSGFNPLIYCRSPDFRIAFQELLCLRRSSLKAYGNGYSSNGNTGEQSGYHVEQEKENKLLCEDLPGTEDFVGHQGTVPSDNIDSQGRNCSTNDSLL

[14] = Fluorescence-based cell-based high throughput dose response assay for inhibitors of the interaction of nucleotide-binding oligomerization domain containing 2 (NOD2) and the receptor-interacting serine-threonine kinase 2 (RIPK2).; assay type: functional; details: Homo sapiens
[15] = NIH3T3 cell viability loss – ATP luminescence, mouse fibroblasts, counter-screen, dose response (AID 2010); assay type: functional, cell-based;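 also: cells exposed to compound for about 90 hours before reading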
[16] = system: HEK293; test: cells; details: Homo sapiens; remark: listed apart in the source
[17] = molecular target: T2, Protein RecA (Mycobacterium tuberculosis, UniProt P9WHJ3); test: Fluorescence Cell-Free Homogeneous Dose Retest to Identify Inhibitors of RecA-Intein Splicing Activity. [Related pubchem assays (depositor defined):AID2097, AID2223, AID489010, AID492950]; assay type: functional
T2 sequence (P9WHJ3 whole entry): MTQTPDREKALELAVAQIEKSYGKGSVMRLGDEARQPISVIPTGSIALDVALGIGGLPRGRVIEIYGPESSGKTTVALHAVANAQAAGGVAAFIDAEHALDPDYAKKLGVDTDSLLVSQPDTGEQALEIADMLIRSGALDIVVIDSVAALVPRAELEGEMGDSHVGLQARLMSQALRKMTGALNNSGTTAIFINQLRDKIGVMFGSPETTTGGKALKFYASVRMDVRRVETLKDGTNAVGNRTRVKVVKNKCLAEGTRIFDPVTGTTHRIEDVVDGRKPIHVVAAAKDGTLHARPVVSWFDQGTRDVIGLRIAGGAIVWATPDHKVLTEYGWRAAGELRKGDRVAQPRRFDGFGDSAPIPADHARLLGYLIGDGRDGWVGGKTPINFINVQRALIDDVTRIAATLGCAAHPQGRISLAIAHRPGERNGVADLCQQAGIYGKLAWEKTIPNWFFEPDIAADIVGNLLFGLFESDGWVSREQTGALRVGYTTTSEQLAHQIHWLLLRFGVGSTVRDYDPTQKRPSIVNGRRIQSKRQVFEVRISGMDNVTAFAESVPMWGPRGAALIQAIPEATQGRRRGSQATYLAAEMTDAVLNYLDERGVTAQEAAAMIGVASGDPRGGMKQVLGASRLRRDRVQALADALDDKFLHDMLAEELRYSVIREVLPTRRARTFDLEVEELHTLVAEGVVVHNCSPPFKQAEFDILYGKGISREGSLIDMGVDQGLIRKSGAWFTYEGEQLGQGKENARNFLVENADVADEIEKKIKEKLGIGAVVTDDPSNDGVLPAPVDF

[18] = molecular target: T3, Heat shock factor protein 1 (Mus musculus, UniProt P38532); test: enhancement of HSF1-driven luciferase signal – cell-based, NIH3T3, luminescence, dose retest, confirmation (AID 435004); assay type: functional;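 also: stress induced by proteasome inhibitor MG132 added 30 min after compound; luciferase reporter driven by HSF1 response element in NIH3T3 cells; actives raise luminescence as potentiators of the MG132 stress response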
T3 sequence (P38532 whole entry): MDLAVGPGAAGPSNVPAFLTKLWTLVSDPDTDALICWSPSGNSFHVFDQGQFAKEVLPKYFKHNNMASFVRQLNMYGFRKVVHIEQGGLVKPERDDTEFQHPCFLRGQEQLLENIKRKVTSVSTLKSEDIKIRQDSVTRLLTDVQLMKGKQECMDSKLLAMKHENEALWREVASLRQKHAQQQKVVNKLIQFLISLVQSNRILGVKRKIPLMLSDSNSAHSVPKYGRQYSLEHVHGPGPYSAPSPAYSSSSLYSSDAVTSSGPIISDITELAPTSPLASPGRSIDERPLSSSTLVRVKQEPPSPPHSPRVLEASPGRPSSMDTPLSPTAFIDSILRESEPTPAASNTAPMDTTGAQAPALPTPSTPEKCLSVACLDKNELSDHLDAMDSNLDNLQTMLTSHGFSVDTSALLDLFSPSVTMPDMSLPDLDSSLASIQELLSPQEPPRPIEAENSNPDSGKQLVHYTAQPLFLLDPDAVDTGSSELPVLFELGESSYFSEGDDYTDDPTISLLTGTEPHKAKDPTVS

[19] = toxicity toward HepG2 liver cells – cell-based, plate reader, cherry-pick, antagonist series, cytotoxicity control, dose response (AID 743416); assay type: functional
[20] = molecular target: T4, Replicative DNA helicase DnaB (Mycobacterium tuberculosis, UniProt P9WMR3); test: DnaB intein splicing inhibitors, dose response, biochemical, cell-free fluorescence (AID 449749); assay type: functional
T4 sequence (P9WMR3 whole entry): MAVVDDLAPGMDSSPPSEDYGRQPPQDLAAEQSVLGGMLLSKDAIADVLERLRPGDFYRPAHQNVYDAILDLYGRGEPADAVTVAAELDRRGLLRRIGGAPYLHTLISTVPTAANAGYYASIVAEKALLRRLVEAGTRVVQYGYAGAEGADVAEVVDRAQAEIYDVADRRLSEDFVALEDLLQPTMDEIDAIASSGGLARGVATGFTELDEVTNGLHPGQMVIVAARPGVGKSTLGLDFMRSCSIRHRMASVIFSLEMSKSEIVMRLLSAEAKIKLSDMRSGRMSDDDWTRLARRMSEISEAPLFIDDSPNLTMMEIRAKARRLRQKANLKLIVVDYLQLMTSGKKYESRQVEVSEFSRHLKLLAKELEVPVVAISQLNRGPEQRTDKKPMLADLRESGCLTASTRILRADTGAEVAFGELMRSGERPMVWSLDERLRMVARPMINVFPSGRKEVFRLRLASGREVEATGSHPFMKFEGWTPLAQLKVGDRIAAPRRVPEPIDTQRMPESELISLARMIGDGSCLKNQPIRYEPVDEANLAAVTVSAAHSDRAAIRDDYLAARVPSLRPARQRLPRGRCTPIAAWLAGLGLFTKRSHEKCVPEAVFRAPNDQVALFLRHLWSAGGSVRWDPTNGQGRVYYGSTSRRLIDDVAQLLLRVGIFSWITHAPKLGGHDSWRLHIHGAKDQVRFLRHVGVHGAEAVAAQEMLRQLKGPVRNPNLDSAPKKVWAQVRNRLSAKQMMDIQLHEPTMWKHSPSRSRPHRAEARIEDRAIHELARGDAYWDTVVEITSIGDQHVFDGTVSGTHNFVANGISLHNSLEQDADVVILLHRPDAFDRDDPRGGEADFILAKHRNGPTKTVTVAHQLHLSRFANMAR

[21] = A549 cell cytotoxicity, dose response, cytotoxicity control, plate reader, cherry-pick, antagonist series (AID 743412); assay type: functional, cell-based
[22] = molecular target: T5, Mannose-6-phosphate isomerase (Homo sapiens, UniProt P34949); test: MPI inhibition at elevated mannose 6-phosphate – biochemical, fluorescence intensity, high mannose 6-phosphate, primary screen (AID 1220)
T5 sequence (P34949 whole entry): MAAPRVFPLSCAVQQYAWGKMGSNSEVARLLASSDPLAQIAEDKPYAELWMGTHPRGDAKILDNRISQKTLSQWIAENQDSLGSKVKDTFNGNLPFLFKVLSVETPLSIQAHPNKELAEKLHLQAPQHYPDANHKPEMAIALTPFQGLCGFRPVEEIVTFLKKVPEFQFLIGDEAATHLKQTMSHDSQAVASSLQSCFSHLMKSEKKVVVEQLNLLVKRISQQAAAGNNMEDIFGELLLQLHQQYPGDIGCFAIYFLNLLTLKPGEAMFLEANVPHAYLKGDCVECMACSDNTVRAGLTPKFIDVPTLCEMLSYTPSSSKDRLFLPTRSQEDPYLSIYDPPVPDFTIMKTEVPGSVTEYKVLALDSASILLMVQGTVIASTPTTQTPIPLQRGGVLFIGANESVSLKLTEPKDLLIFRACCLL

[23] = molecular target: Glucose-6-phosphate 1-dehydrogenase (Homo sapiens, UniProt P11413); test: inhibition of Homo sapiens G6PD, dose series – biochemical, fluorescence, selectivity assay for P. falciparum G6PD inhibitor project, dose response (AID 504792); assay type: functional
Glucose-6-phosphate 1-dehydrogenase, sequence (P11413 whole entry): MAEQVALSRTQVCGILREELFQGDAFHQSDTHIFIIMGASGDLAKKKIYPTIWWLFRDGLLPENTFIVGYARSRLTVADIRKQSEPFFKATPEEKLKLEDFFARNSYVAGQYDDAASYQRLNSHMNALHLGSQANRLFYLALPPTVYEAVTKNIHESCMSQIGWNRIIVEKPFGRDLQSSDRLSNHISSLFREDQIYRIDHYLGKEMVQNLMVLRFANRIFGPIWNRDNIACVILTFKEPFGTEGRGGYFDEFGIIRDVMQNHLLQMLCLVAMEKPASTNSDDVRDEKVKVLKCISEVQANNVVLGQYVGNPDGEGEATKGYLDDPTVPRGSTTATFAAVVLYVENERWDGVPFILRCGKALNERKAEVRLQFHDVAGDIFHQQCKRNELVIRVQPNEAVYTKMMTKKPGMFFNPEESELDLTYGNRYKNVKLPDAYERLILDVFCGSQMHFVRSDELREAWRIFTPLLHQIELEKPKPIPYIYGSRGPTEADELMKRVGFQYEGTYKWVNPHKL

[24] = molecular target: T6, Cysteine protease ATG4B (Homo sapiens, UniProt Q9Y4P1); assay type: functional;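 also: Fluorescence-based dose-response confirmation assay measuring inhibition of ATG4B activity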
T6 sequence (Q9Y4P1 whole entry): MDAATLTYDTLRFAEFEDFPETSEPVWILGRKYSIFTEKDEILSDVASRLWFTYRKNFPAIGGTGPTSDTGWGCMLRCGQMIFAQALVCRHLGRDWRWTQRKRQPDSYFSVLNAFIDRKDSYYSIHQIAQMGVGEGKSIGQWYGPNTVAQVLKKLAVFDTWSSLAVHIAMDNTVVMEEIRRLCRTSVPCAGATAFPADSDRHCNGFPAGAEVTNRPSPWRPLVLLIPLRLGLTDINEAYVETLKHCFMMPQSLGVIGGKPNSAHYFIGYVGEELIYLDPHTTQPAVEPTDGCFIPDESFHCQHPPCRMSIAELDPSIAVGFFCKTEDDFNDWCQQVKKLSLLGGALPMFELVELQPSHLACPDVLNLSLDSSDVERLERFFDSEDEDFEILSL

[25] = molecular target: Phospholipase A2 (Homo sapiens, UniProt P04054); assay type: functional;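 also: confirmatory dose-response counterscreen on phospholipase A2, testing hits that came from an ultra-high-throughput screen for ATG4B inhibitors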
Phospholipase A2, sequence (P04054 whole entry): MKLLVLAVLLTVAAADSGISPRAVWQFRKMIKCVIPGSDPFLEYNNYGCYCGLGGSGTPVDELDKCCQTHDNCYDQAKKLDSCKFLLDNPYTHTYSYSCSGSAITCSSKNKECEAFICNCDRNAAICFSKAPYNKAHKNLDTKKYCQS

[26] = molecular target: Cytochrome P450 2D6 (Homo sapiens, UniProt P10635);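 also: CYP2D6 member of a cytochrome P450 panel assay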
Cytochrome P450 2D6, sequence (P10635 whole entry): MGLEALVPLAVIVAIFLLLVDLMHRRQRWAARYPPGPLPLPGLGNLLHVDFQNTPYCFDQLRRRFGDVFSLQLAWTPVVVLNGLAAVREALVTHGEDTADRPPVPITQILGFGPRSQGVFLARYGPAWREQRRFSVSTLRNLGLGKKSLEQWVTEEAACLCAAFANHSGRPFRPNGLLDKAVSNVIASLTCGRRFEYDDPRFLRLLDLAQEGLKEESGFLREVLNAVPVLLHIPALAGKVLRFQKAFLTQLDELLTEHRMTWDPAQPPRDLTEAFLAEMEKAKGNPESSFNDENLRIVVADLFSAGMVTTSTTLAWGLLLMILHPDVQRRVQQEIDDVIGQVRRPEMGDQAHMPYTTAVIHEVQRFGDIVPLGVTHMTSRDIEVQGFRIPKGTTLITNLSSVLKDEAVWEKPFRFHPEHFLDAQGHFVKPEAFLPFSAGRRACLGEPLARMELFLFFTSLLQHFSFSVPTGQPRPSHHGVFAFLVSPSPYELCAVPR

[27] = molecular target: Cytochrome P450 3A4 (Homo sapiens, UniProt P08684);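 also: CYP3A4 tested as one member of a cytochrome P450 panel screen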
Cytochrome P450 3A4, sequence (P08684 whole entry): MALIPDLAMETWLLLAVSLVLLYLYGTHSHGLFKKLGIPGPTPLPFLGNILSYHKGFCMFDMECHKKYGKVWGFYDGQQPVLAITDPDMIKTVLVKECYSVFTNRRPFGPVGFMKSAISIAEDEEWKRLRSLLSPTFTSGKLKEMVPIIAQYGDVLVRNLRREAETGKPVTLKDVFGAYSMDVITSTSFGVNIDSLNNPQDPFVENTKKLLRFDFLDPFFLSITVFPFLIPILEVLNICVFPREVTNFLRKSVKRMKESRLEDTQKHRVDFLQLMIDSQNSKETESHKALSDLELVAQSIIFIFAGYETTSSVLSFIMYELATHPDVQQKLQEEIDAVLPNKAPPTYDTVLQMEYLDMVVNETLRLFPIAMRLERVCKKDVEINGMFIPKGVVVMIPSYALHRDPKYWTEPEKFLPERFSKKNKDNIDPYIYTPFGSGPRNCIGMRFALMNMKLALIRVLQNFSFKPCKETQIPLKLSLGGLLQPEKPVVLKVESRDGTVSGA

Structure (SMILES): O=C1NC(=O)N(CCc2ccccc2)C(=O)/C1=C(O)/C=C/c1ccccc1
- CC50 [1]: 13.3 µM (active)
- IC50 [2]: > 25 µM (active)

Structure (SMILES): CCn1cnc2c(Nc3cccc(Cl)c3)nc(C#N)nc21
- AC50 [3]: 50 µM (active)

Structure (SMILES): CCS(=O)(=O)Nc1cccc(C(=C2CCCCC2)c2c[nH]cn2)c1
- AC50 [4]: 14.1 µM (inconclusive)

Structure (SMILES): Cc1nc(N2CCN(S(=O)(=O)c3ccccc3)CC2)c2cc(-c3ccccc3)sc2n1
- AC50 [3]: > 350 µM (inactive)

Structure (SMILES): NC(CSC(c1ccccc1)(c1ccccc1)c1ccc(-c2ccccc2)cc1)C(=O)O (stereo not drawn)
- IC50 [5]: 11.5 µM (active)
- IC50 [6]: 24 µM (active)
- IC50 [7]: 9.65 µM (active)

Structure (SMILES): CS(=O)(=O)c1ccc(C(=O)OCc2nnc(-c3ccccc3)o2)cc1[N+](=O)[O-]
- AC50 [8]: 13.4 µM (active)
- AC50 [9]: 12.1 µM (active)
- AC50 [10]: 20.2 µM (active)
- EC50 [11]: > 59.6 µM (inactive)
- EC50 [12]: 4.95 µM (active)
- EC50 [13]: 19 µM (inactive)
- IC50 [14]: 3.01 µM (active)
- EC50 [15]: 6.24 µM (active)
- EC50 [16]: > 59.6 µM (inactive)
- EC50 [17]: 2.66 µM (active)
- EC50 [18]: 8.57 µM (inconclusive)
- AC50 [19]: 8.73 µM (active)
- AC50 [20]: 7.57 µM (active)
- AC50 [21]: 6.14 µM (active)

Structure (SMILES): CC(=NNc1nc2ccccc2s1)c1ccncn1
- CC50 [1]: 5.47 µM (active)
- IC50 [2]: > 25 µM (active)

Structure (SMILES): OCC1(CCOc2ccccc2)CCN(Cc2nc3cc(F)ccc3[nH]2)CC1
- IC50 [2]: 24.6 µM (active)

Structure (SMILES): COc1ccc(NS(=O)(=O)c2ccc(N3CCCC3)c(NC(=S)Nc3cccc(C)c3C)c2)cc1
- IC50 [22]: > 50 µM (not active)
- IC50 [23]: > 80 µM (inactive)

Structure (SMILES): CC(=O)OCC1(C)CN(c2ccccc2)NC1=O (stereo not drawn)
- IC50 [23]: 46.7 µM (inactive)

Structure (SMILES): CCCN(CCC)CCc1ccc(O)c(O)c1 [DIPROPYLDOPAMINE HYDROBROMIDE]
- AC50 [4]: 15.8 µM (inconclusive)

Structure (SMILES): CCOC(=O)c1sc(-c2ccccc2)cc1NC(=O)Nc1ccccc1
- IC50 [24]: 21.9 µM (inactive)
- EC50 [12]: 3.49 µM (active)
- EC50 [15]: 16.8 µM (active)
- IC50 [25]: 9.28 µM (active)

Structure (SMILES): CCCc1cc(=O)[nH]c(SCc2cc(Cl)ccc2OC(F)F)n1
- IC50 [24]: 9.02 µM (active)
- AC50 [26]: 20 µM (inconclusive)
- IC50 [25]: 9.01 µM (active)
- AC50 [27]: 1.12 µM (inconclusive)

Structure (SMILES): O=C(Nc1ccccc1O)c1cc2cc(Br)ccc2oc1=O
- AC50 [3]: 221 µM (active)

Structure (SMILES): COc1ccc(C2c3c(ncn(CCCN4CCOCC4)c3=N)Oc3ccc4ccccc4c32)cc1OC (stereo not drawn)
- CC50 [1]: > 25 µM (active)
- IC50 [2]: 23.8 µM (active)

Structure (SMILES): O=C(O)c1cc2c(cc1NC(=O)c1ccccc1OC(F)F)OCCCO2
- IC50 [24]: 9.56 µM (active)
- IC50 [25]: 6.69 µM (active)

Structure (SMILES): CC(C)(C)CC(=O)Nc1cccc2c1CCCC2
- IC50 [7]: > 99 µM (inactive)
